From patent US8119602B2, “Administration of HCV protease inhibitors in combination with food to improve bioavailability” (Schering Corporation, priority 2005, dated 2012)
Read-outs that look alike come from different tables or passages of the source. Each block holds one compound with its values, some of them ahead of it.

Tests used:
[1] = Single dose, randomized fed vs. fasted study of the effect of food on bioavailability (pharmacokinetics); format: in vivo, healthy subjects; conditions: for Relative bioavailability, AUC (tf) Ratio Estimate / Relative bioavailability, AUC(l) Ratio Estimate / Relative bioavailability, Cmax Ratio Estimate: fed vs fasted; for increase of Cmax relative to fasted state / increase of mean AUCs relative to fasted state: based on ratio estimates; for half-life: read-out: t½ (mean) (converted)
Description: A single dose, randomized, two-treatment (fed vs. fasted) study was conducted to assess the effect of food on bioavailability of a compound of the present invention (SCH 503034 or Compound Ia). A single oral dose of 600 mg. of compound of Formula Ia was administered to two groups of healthy subjects. Group A received the dose after an overnight 10-hour fast; Group B received the dose about twenty minutes after consuming a high fat breakfast of 850 calories having 53.8 g fat (57% of calories from fat) or low fat breakfast of 451 calories. Blood samples were collected immediately prior to dosing (time zero) and at times 0.5, 1, 1.5, 2, 2.5, 3, 4, 6, 8, 12, 24, 36, 48, and 72 hours post dose. Results of measurement of mean maximum concentration (Cmax) of compound of Formula Ia in serum in ng/ml are shown in Table 1 and FIG. 1 (graph of mean plasma concentration of the compound versus Time). Calculations of AUC(tf) (area under the curve at time final), AUC(I) (area under the curve extrapolated to infinity), t½ (time at which one-half of the compound has disappeared from the blood), Tmax (time at which maximum serum concentration is achieved), CL/F (clearance divided by bioavailability), and Vd/F (volume of distribution divided by bioavailability) are made according to standard formulas known to one skilled in the art of drug metabolism and pharmacokintics.

[2] = Serum levels after two weeks of 400 mg bid or tid dosing; format: in vivo, healthy subjects; conditions: 400 mg tid for two weeks; day 14
Description: Healthy subjects were dosed with two regimens of 400 mg. of a compound of Formula 1a, twice per day (bid) or three times per day (tid) for a period of two weeks. Blood samples were taken on day 14 in the morning at time zero (pre-dose) and at 12 hours post-dose (for the bid regimen) or 8 hours post-dose (for the tid regimen). As shown in the box plots, with tid dosing a metabolism effect is observed. Serum levels of the drug are higher at time zero, 8 hours after the previous evening dose, as compared to serum levels of the drug when measured 8 hours following the morning dose.

[3] = human, serum, po, 600 mg, single oral dose 600 mg, fasted, balanced data
[4] = human, serum, po, 600 mg, single oral dose 600 mg, fed (high fat diet), balanced data
[5] = human, serum, po, 600 mg, single oral dose 600 mg, fed (non fat diet), balanced data

Relative bioavailability, AUC (tf) Ratio Estimate ([1]; compare B/A, balanced data): 317%
Relative bioavailability, AUC(l) Ratio Estimate ([1]; compare B/A, balanced data): 276%
Relative bioavailability, Cmax Ratio Estimate ([1]; compare B/A, balanced data): 223%
Relative bioavailability, AUC (tf) Ratio Estimate ([1]; compare C/A, balanced data): 182%
Relative bioavailability, AUC(l) Ratio Estimate ([1]; compare C/A, balanced data): 167%
Relative bioavailability, Cmax Ratio Estimate ([1]; compare C/A, balanced data): 129%
absorption lag time ([1]; fed state with high fat diet, in 8 of the 12 subjects who completed all three periods): 0.5 h
absorption lag time ([1]; fed state with non fat diet, 7 subjects): 0.5 h
increase of Cmax relative to fasted state ([1]; high fat diet): 123%
increase of mean AUCs relative to fasted state ([1]; high fat diet): over 200%
Cmax [1, 3]: 502 ng/mL
Vd/F [1, 3]: 4580 L
AUC ([1]; human, serum, po, 600 mg, single oral dose 600 mg, fasted, balanced data, read-out: AUC(l) (mean)): 1630 ng·h/mL
AUC ([1]; human, serum, po, 600 mg, single oral dose 600 mg, fasted, balanced data, read-out: AUC(tf) (mean)): 1560 ng·h/mL
Tmax ([1]; human, serum, po, 600 mg, single oral dose 600 mg, fasted, balanced data, read-out: Tmax, median (range)): 1.5 h
half-life [1, 3]: 457 min
Cmax [1, 4]: 1150 ng/mL
Vd/F [1, 4]: 418 L
AUC ([1]; human, serum, po, 600 mg, single oral dose 600 mg, fed (high fat diet), balanced data, read-out: AUC(l) (mean)): 4440 ng·h/mL
AUC ([1]; human, serum, po, 600 mg, single oral dose 600 mg, fed (high fat diet), balanced data, read-out: AUC(tf) (mean)): 5090 ng·h/mL
half-life [1, 4]: 121 min
Cmax [1, 5]: 639 ng/mL
Vd/F [1, 5]: 1140 L
AUC ([1]; human, serum, po, 600 mg, single oral dose 600 mg, fed (non fat diet), balanced data, read-out: AUC(l) (mean)): 2750 ng·h/mL
AUC ([1]; human, serum, po, 600 mg, single oral dose 600 mg, fed (non fat diet), balanced data, read-out: AUC(tf) (mean)): 3040 ng·h/mL
half-life [1, 5]: 192 min
increase of Cmax relative to fasted state ([1]; non fat diet): 29%
increase of mean AUCs relative to fasted state ([1]; non fat diet): about 100%
CL/F (mean) ([1]; single oral dose 600 mg, fasted, balanced data): 407 L/h
CL/F (mean) ([1]; single oral dose 600 mg, fed (high fat diet), balanced data): 144.0 L/h
CL/F (mean) ([1]; single oral dose 600 mg, fed (non fat diet), balanced data): 243 L/h
rate of absorption in the fed state (vs fasted) ([1]; single oral dose 600 mg, fed state): more slowly
SMILES: CC(C)(C)NC(=O)N[C@H](C(=O)N1C[C@H]2[C@@H]([C@H]1C(=O)NC(CC1CCC1)C(=O)C(N)=O)C2(C)C)C(C)(C)C (mixture of isomers) [SCH 503034]

serum levels at time zero (8 hours after the previous evening dose) compared to 8 hours following the morning dose [2]: higher
SMILES: CC(C)(C)NC(=O)N[C@H](C(=O)N1C[C@H]2[C@@H]([C@H]1C(=O)NC(CC1CCC1)C(=O)C(N)=O)C2(C)C)C(C)(C)C (stereo partly drawn) [compound of Formula 1a, (1R,5S)-N-[3-Amino-1-(Cyclobutylmethyl)-2,3-Dioxopropyl]-3-[2(S)-[[[(1,1-Dimethylethyl)Amino]Carbonyl]Amino]-3,3-Dimethyl-1-Oxobutyl]-6,6-Dimethyl-3-Azabicyclo[3.1.0]Hexan-2(S)-Carboxamide]
